Molecular target: T1, LXRβ (Homo sapiens, UniProt P55055)
T1 construct: Co-transfection expression plasmids, comprising full-length LXRα (pCMX-h LXRα[…] or LXRβ (pCMX-hLXRβ)); expressed in transfected cells; host or cells: CV-1 African Green Monkey Kidney Cells
T1 sequence (P55055 1-460): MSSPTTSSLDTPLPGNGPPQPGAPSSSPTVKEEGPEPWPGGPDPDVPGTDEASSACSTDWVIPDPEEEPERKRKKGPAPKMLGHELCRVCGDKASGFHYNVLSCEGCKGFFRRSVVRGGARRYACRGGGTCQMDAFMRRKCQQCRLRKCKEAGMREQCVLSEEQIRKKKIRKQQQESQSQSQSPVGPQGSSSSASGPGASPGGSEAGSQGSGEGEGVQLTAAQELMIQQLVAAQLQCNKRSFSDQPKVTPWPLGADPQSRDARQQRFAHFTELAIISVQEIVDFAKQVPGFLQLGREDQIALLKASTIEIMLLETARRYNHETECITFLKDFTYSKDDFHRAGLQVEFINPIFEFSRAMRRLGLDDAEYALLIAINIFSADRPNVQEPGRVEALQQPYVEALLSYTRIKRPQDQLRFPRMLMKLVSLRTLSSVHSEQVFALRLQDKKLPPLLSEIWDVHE
T1 sequence (P19793 1-462 partner): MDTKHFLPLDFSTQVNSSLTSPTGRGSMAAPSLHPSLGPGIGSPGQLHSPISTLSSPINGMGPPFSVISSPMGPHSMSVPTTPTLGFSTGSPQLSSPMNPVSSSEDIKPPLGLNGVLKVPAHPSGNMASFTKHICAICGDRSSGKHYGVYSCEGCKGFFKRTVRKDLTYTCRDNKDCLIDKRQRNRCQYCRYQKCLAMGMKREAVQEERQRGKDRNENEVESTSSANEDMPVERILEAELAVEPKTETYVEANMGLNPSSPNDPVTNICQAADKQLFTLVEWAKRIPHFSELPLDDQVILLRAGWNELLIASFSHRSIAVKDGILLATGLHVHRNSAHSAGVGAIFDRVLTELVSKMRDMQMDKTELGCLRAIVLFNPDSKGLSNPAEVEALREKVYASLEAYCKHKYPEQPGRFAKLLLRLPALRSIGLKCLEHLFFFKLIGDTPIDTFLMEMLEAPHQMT
Assay: Co-transfection assay (LXRE luciferase reporter), LXRβ
Format: cell-based
Settings: for EC50: CV-1 cells transfected with pCMX-hLXRβ and LXREx1-Tk-Luciferase, 20 hours incubation; for Emax: LXRβ co-transfection, relative to high control 1-(2,4-difluorobenzyl)-2-oxo-6-(4-phenoxyphenyl)-4-(trifluoromethyl)-1,2-dihydropyridine-3-carbonitrile, read-out: % Efficacy
How it was run: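 CV-1 cells transiently co-transfected with full-length human LXRβ (or LXRα), LXREx1-Tk-luciferase reporter and β-galactosidase control; compound added (10 μM final in single-point, 11-point ½-log curves, ≤0.5% DMSO) for 20 h at 37 °C. Luciferase read; EC50 from four-parameter fit, efficacy relative to reference agonist high control.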

SMILES	EC50 [nM]	Emax [%]
Cc1nc(-c2cc(-c3cc(F)c(CO)c(S(C)(=O)=O)c3)ccc2-n2cc(C(F)(F)F)nc2C)c(-c2ccc(OC(F)F)cc2Cl)o1 [Example 397, (3′-(5-(2-chloro-4-(difluoromethoxy)phenyl)-2-methyloxazol-4-yl)-3-fluoro-4′-(2-methyl-4-(trifluoromethyl)-1H-imidazol-1-yl)-5-(methylsulfonyl)biphenyl-4-yl)methanol]	25	63
Cc1nc(C(F)(F)F)cn1-c1c(F)cc(-c2ccc(CO)c(S(C)(=O)=O)c2)cc1-n1nncc1-c1ccc(OC(F)(F)F)cc1 [Example 203, [3′-fluoro-3-(methylsulfonyl)-4′-[2-methyl-4-(trifluoromethyl)-1H-imidazol-1-yl]-5′-(5-{4-[(trifluoromethyl)oxy]phenyl}-1H-1,2,3-triazol-1-yl)biphenyl-4-yl]methanol]	127	71
COCCc1nc(-c2cc(-c3cccc(S(C)(=O)=O)c3)ccc2-n2cc(C(F)(F)F)nc2C)c(-c2ccc(OC(F)(F)F)cc2)o1 [Example 564, 2-(2-methoxyethyl)-4-(4-(2-methyl-4-(trifluoromethyl)-1H-imidazol-1-yl)-3′-(methylsulfonyl)-[1,1′-biphenyl]-3-yl)-5-(4-(trifluoromethoxy)phenyl)oxazole]	164	57
Cc1nc(C(F)F)c(C)n1-c1ccc(-c2cccc(S(C)(=O)=O)c2)cc1-n1nncc1-c1ccc(Cl)cc1 [Example 230, 5-(4-chlorophenyl)-1-(4-(4-(difluoromethyl)-2,5-dimethyl-1H-imidazol-1-yl)-3′-(methylsulfonyl)-[1,1′-biphenyl]-3-yl)-1H-1,2,3-triazole]	2050	24
C=Cc1nc(-c2cc(-c3cccc(S(C)(=O)=O)c3)ccc2-n2cc(C(F)(F)F)nc2C)c(-c2ccc3c(c2)OC(F)(F)O3)o1 [Example 532]	16	89
Cc1nc(C(F)F)c(C)n1-c1ccc(-c2cc(F)c(CO)c(S(C)(=O)=O)c2)cc1-n1nncc1-c1ccc(OC(F)(F)F)cc1 [Example 233, (4′-(4-(difluoromethyl)-2,5-dimethyl-1H-imidazol-1-yl)-3-fluoro-5-(methylsulfonyl)-3′-(5-(4-(trifluoromethoxy)phenyl)-1H-1,2,3-triazol-1-yl)-[1,1′-biphenyl]-4-yl)methanol]	1340	92
Cc1nc(-c2cc(-c3cc(F)c(CO)c(S(C)(=O)=O)c3)ccc2-n2cc(C(F)(F)F)nc2C)c(-c2ccc(OC(F)F)c(Cl)c2)o1 [Example 399, (3′-(5-(3-chloro-4-(difluoromethoxy)phenyl)-2-methyloxazol-4-yl)-3-fluoro-4′-(2-methyl-4-(trifluoromethyl)-1H-imidazol-1-yl)-5-(methylsulfonyl)biphenyl-4-yl)methanol]	28	76
CCC(F)(F)c1cn(-c2ccc(-c3cccc(S(=O)(=O)NC)c3)cc2-n2nncc2-c2ccc(OC(F)(F)F)cc2)c(C)n1 [Example 185, 4′-[4-(1,1-difluoropropyl)-2-methyl-1H-imidazol-1-yl]-N-methyl-3′-(5-{4-[(trifluoromethyl)oxy]phenyl}-1H-1,2,3-triazol-1-yl)biphenyl-3-sulfonamide]	297	77
Cc1nc(C(C)(F)F)cn1-c1ccc(-c2cccc(S(C)(=O)=O)c2)cc1-c1ocnc1-c1ccc(OC(F)(F)F)cc1 [Example 362, 5-{4-[4-(1,1-difluoroethyl)-2-methyl-1H-imidazol-1-yl]-3′-(methylsulfonyl)biphenyl-3-yl}-4-{4-[(trifluoromethyl)oxy]phenyl}-1,3-oxazole]	691	75
Cc1nc(-c2cc(-c3cccc(S(C)(=O)=O)c3)ccc2-n2cc(C(F)(F)F)nc2C)c(-c2ccc(OC(F)F)c(OCC3CC3)c2)o1 [Example 382, 5-(3-(cyclopropylmethoxy)-4-(difluoromethoxy)phenyl)-2-methyl-4-(4-(2-methyl-4-(trifluoromethyl)-1H-imidazol-1-yl)-3′-(methylsulfonyl)biphenyl-3-yl)oxazole]	57	62
Cc1nc(C(F)(F)F)cn1-c1ccc(-c2cc(F)c(CO)c(S(C)(=O)=O)c2)cc1-n1nncc1-c1ccc2c(c1)OC(F)(F)O2 [Example 52, {3′-[5-(2,2-difluoro-1,3-benzodioxol-5-yl)-1H-1,2,3-triazol-1-yl]-3-fluoro-5-(methylsulfonyl)-4′-[2-methyl-4-(trifluoromethyl)-1H-imidazol-1-yl]biphenyl-4-yl}methanol]	172	82

Other lines, results leading:

EC50 [nM]	Emax [%]	SMILES
205	79	Cc1nc(C(F)(F)F)cn1-c1ccc(-c2cccc(S(C)(=O)=O)c2)cc1-c1nc(CN(C)C)oc1-c1ccc(OC(F)(F)F)cc1 [Example 538, N,N-dimethyl-1-(4-(4-(2-methyl-4-(trifluoromethyl)-1H-imidazol-1-yl)-3′-(methylsulfonyl)-[1,1′-biphenyl]-3-yl)-5-(4-(trifluoromethoxy)phenyl)oxazol-2-yl)methanamine]
176	76	COCc1c(F)cc(-c2cc(F)c(-n3cc(C(F)(F)F)nc3C)c(-n3nncc3-c3ccc(Cl)cc3)c2)cc1S(C)(=O)=O [Example 207, 5-(4-chlorophenyl)-1-{3′,5-difluoro-4′-[(methyloxy)methyl]-5′-(methylsulfonyl)-4-[2-methyl-4-(trifluoromethyl)-1H-imidazol-1-yl]biphenyl-3-yl}-1H-1,2,3-triazole]
507	101	Cc1nc(C(F)(F)F)cn1-c1ccc(-c2cccc(S(C)(=O)=O)c2)cc1-n1nncc1-c1ccc(OC(F)(F)C(F)F)cc1 [Example 23, 1-{3′-(methylsulfonyl)-4-[2-methyl-4-(trifluoromethyl)-1H-imidazol-1-yl]biphenyl-3-yl}-5-{4-[(1,1,2,2-tetrafluoroethyl)oxy]phenyl}-1H-1,2,3-triazole]
145	66	Cc1nc(-c2cc(-c3cccc(S(C)(=O)=O)c3)ccc2-n2cc(C(F)(F)F)nc2C)c(-c2ccc3c(c2)CC(C)(C)O3)o1 [Example 419, 5-(2,2-dimethyl-2,3-dihydrobenzofuran-5-yl)-2-methyl-4-(4-(2-methyl-4-(trifluoromethyl)-1H-imidazol-1-yl)-3′-(methylsulfonyl)biphenyl-3-yl)oxazole]
203	59	Cc1nc(C(F)(F)C(C)C)cn1-c1ccc(-c2cccc(S(C)(=O)=O)c2)cc1-n1nncc1-c1ccc(OC(F)(F)F)cc1 [Example 164, 1-{4-[4-(1,1-difluoro-2-methylpropyl)-2-methyl-1H-imidazol-1-yl]-3′-(methylsulfonyl)biphenyl-3-yl}-5-{4-[(trifluoromethyl)oxy]phenyl}-1H-1,2,3-triazole]
820	85	Cc1nc(C(F)(F)F)cn1-c1ccc(-c2cccc(C(C)(C)C(N)=O)c2)cc1-n1nncc1Cc1ccc(Cl)cc1 [Example 119, 2-(3′-{5-[(4-chlorophenyl)methyl]-1H-1,2,3-triazol-1-yl}-4′-[2-methyl-4-(trifluoromethyl)-1H-imidazol-1-yl]biphenyl-3-yl)-2-methylpropanamide]
1270	95	Cc1nc(C(F)(F)F)cn1-c1ccc(-c2cccc(S(N)(=O)=O)c2)cc1-n1nncc1-c1ccc(OC(F)(F)F)cc1 [Example 44, 4′-[2-methyl-4-(trifluoromethyl)-1H-imidazol-1-yl]-3′-(5-{4-[(trifluoromethyl)oxy]phenyl}-1H-1,2,3-triazol-1-yl)biphenyl-3-sulfonamide]
657	70	COc1ncc(-c2oc(C)nc2-c2cc(-c3cccc(S(C)(=O)=O)c3)ccc2-n2cc(C(F)(F)F)nc2C)cn1 [Example 414, 5-(2-methoxypyrimidin-5-yl)-2-methyl-4-(4-(2-methyl-4-(trifluoromethyl)-1H-imidazol-1-yl)-3′-(methylsulfonyl)biphenyl-3-yl)oxazole]
430	101	Cc1nc(C(F)(F)F)cn1-c1ccc(-c2cc(Cl)c(CO)c(S(C)(=O)=O)c2)cc1-n1nncc1-c1ccc(OC(F)(F)F)cc1 [Example 212, (3-chloro-4′-(2-methyl-4-(trifluoromethyl)-1H-imidazol-1-yl)-5-(methylsulfonyl)-3′-(5-(4-(trifluoromethoxy)phenyl)-1H-1,2,3-triazol-1-yl)-[1,1′-biphenyl]-4-yl)methanol]

— US9834542B2, “LXR modulators” (BRISTOL-MYERS SQUIBB COMPANY, priority 2013, dated 2017)
